The source of these data is patent publication US11472803B2, “7-substituted 1-aryl-naphthyridine-3-carboxylic acid amides and use thereof” (Bayer Aktiengesellschaft, priority 2016, dated 2022).

For the experiment, the target named is T1, human M2 receptor (Homo sapiens, UniProt P08172).
T1 construct: expressed in transfected cells; host or cells: CHO-DUKX (CHO-DUKX-M2-GIRK)
T1 sequence (P08172 1-466): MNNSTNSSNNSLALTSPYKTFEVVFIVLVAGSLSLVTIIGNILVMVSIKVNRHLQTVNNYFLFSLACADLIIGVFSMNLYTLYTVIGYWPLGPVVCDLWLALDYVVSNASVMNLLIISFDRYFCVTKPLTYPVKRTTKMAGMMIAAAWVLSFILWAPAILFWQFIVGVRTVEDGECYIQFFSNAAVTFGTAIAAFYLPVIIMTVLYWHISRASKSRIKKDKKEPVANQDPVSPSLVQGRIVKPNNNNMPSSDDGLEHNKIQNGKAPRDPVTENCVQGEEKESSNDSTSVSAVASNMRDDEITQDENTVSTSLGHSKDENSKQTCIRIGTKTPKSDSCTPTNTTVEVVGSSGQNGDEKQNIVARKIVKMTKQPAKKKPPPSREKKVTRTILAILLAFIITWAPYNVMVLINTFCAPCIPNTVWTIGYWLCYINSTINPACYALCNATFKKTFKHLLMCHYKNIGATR
As to the kind of experiment: Functional M2-GIRK1/4 activation test: allosteric potency (EC50) and efficiency at EC20 acetylcholine. In kind it is cell-based. The note with it: CHO-DUKX-M2-GIRK cells; for EC50: voltage-sensitive dye, acetylcholine at EC20, in some cases mean of two or more determinations; for Efficiency / Emax: boosting of the acetylcholine effect at EC20 acetylcholine concentration. From the text:
The binding of orthosteric agonists (endogenous ligand: acetylcholine) to the M2 receptor leads to receptor activation or a change in conformation of the receptor in the manner of a shift in equilibrium in favour of the active receptor conformation.
The agonist-induced change in conformation of the M2 receptor results in a Gαi protein activation. […] Under physiological conditions, the result is then a selective efflux of potassium from the cell along the electrochemical gradient. […] The extent of hyperpolarization can therefore be regarded as a measure of the activation of the M2 receptor.
The test cell used is a recombinant CHO-DUKX cell line which has been stably transfected with cDNA coding for the human M2 receptor and with cDNA coding for both GIRK1/4 subunits (CHO-DUKX-M2-GIRK). The transmembrane potential, or the relative changes in the transmembrane potential as a function of substance addition or M2 activation, is determined by means of a voltage-sensitive dye (FLIPR Membrane Potential Assay Kit Blue, Molecular Devices #R8034) and the measurement of cell fluorescence using a proprietary fluorescence imaging instrument.
The sowing medium consisted of MEM alpha medium (supplemented with 5% PCS, 2% Glutamax, no genticin).
For the particular measurement, the medium was removed and the cells were laden with the volt-age-sensitive dye for at least 6 min at room temperature (30 μl of loading buffer per 384-well). This was followed, in a first measurement, by the determination of the fluorescence for the resting transmembrane potential for a period of 5 sec. Thereafter, 10 μl in each case of the test substances diluted in loading buffer were added, followed by a second measurement to determine the transmembrane potential for a period of 50 sec in 1 sec increments. Finally, the cells were admixed with 10 μl of agonist solution (acetylcholine dissolved in loading buffer). Acetylcholine was used at the concentration corresponding to the EC20, which had been determined in a preliminary test. The M2-mediated GIRK1/4 activation or hyperpolarization was then monitored in a third measurement over a period of 60 sec. The EC50 value (degree of allosteric potency of test compound) and the efficiency (measure of the boosting of the acetylcholine effect at an EC20 acetylcholine concentration) were determined with the aid of a 4-parameter logistic function (Hill function).

On to `CC(NC(=O)c1cn(-c2ncc(F)cc2F)c2nc(N3CC[C@H](O)C3)c(F)cc2c1=O)C(F)(F)C(F)(F)F` (single isomer, unassigned) [Example 129], for which a half-maximal response (EC50) required 66 nM and the Efficiency worked out at 95%.
`CCC(COC(F)(F)F)NC(=O)c1cn(-c2c(F)cc(F)cc2F)c2nc(N3CC[C@H](O)C3)c(F)cc2c1=O` (mixture of isomers) [Example 109, 6-Fluoro-7-[(3S)-3-hydroxypyrrolidin-1-yl]-4-oxo-N-[1-(trifluoromethoxy)butan-2-yl]-1-(2,4,6-trifluorophenyl)-1,4-dihydro-1,8-naphthyridine-3-carboxamide] gave an EC50 of 7.7 nM and an Emax of 100%.
`O=C(NC(C1CC1)C1CC1)c1cn(-c2c(F)cc(F)cc2F)c2nc(N3C[C@@H](O)[C@H](O)C3)c(F)cc2c1=O` [Example 21, N-(dicyclopropylmethyl)-7-[(3R,4R)-3,4-dihydroxypyrrolidin-1-yl]-6-fluoro-4-oxo-1-(2,4,6-trifluorophenyl)-1,4-dihydro-1,8-naphthyridine-3-carboxamide] gave an EC50 of 3 nM and a maximal response (Emax) of 100%.
The corresponding values for `Cc1cc(F)cc(C)c1-n1cc(C(=O)N[C@@H](C2CC2)C(F)(F)F)c(=O)c2cc(F)c(N3C[C@@H](O)[C@H](O)C3)nc21` [Example 175, N-[(1S)-1-Cyclopropyl-2,2,2-trifluoroethyl]-7-[(3R,4R)-3,4-dihydroxypyrrolidin-1-yl]-6-fluoro-1-(4-fluoro-2,6-dimethylphenyl)-4-oxo-1,4-dihydro-1,8-naphthyridine-3-carboxamide] are 73 nM and 83%.
The corresponding values for `CC[C@H](NC(=O)c1cn(-c2c(F)cc(F)cc2F)c2nc(N3C[C@@H](O)[C@H](OC(C)=O)C3)c(F)cc2c1=O)C(F)(F)F` [Example 35, (3R,4R)-1-[3-Fluoro-5-oxo-6-{[(2S)-1,1,1-trifluorobutan-2-yl]carbamoyl}-8-(2,4,6-trifluoro-phenyl)-5,8-dihydro-1,8-naphthyridin-2-yl]-4-hydroxypyrrolidin-3-yl acetate] are 2.9 nM and 100%.
Taken in the same sequence, the figures for `CC(C)(C)C(NC(=O)c1cn(-c2c(F)cc(F)cc2F)c2nc(N3CC(CO)(CO)C3)c(F)cc2c1=O)C(F)(F)C(F)(F)F` (single isomer, unassigned) [Example 214, 7-[3,3-bis(hydroxymethyl)azetidin-1-yl]-6-fluoro-4-oxo-N-[1,1,1,2,2-pentafluoro-4,4-dimethylpentan-3-yl]-1-(2,4,6-trifluorophenyl)-1,4-dihydro-1,8-naphthyridine-3-carboxamide] were 2.1 nM and 100%.
In the case of `CC(C)[C@@H](C)NC(=O)c1cn(-c2c(F)cc(F)cc2F)c2nc(N3CC[C@H](O)C3)c(F)cc2c1=O` [Example 120, 6-Fluoro-7-[(3S)-3-hydroxypyrrolidin-1-yl]-N-[(2R)-3-methylbutan-2-yl]-4-oxo-1-(2,4,6-tri-fluorophenyl)-1,4-dihydro-1,8-naphthyridine-3-carboxamide], the concentration giving a half-maximal response (EC50) was determined as 10.5 nM and the Emax was 96%.
The molecule `O=C(Nc1c(Cl)cccc1Cl)c1cn(-c2c(F)cc(F)cc2F)c2nc(N3C[C@@H](O)[C@H](O)C3)c(F)cc2c1=O` [Example 130, N-(2,6-Dichlorophenyl)-7-[(3R,4R)-3,4-dihydroxypyrrolidin-1-yl]-6-fluoro-4-oxo-1-(2,4,6-trifluorophenyl)-1,4-dihydro-1,8-naphthyridine-3-carboxamide] gave a concentration for a half-maximal effect (EC50) of 2.3 nM and an Emax of 96%.
Taken in the same sequence, the figures for `CCC(C)(C)NC(=O)c1cn(-c2c(F)cc(F)cc2F)c2nc(N(C)C)c(F)cc2c1=O` [Example 61, 7-(Dimethylamino)-6-fluoro-N-(2-methylbutan-2-yl)-4-oxo-1-(2,4,6-trifluorophenyl)-1,4-dihydro-1,8-naphthyridine-3-carboxamide] were 2.2 nM and 94%.
Taken in the same sequence, the figures for `CC(NC(=O)c1cn(-c2ncc(F)cc2F)c2nc(N3CC[C@H](O)C3)c(F)cc2c1=O)C(F)(F)C(F)(F)F` (mixture of isomers) [Example 127, 1-(3,5-Difluoropyridin-2-yl)-6-fluoro-7-[(3S)-3-hydroxypyrrolidin-1-yl]-4-oxo-N-[3,3,4,4,4-pentafluorobutan-2-yl]-1,4-dihydro-1,8-naphthyridine-3-carboxamide] were 13 nM and 92%.
Molecule `CN(C)c1nc2c(cc1F)c(=O)c(C(=O)NC(C(F)(F)F)C(F)(F)F)cn2-c1c(F)cc(F)cc1Cl` [Example 180, 1-(2-Chloro-4,6-difluorophenyl)-7-(dimethylamino)-6-fluoro-N-(1,1,1,3,3,3-hexafluoropropan-2-yl)-4-oxo-1,4-dihydro-1,8-naphthyridine-3-carboxamide] registered an EC50 of 8.5 nM and a maximal response (Emax) of 86%.
`CCC(COC(F)(F)F)NC(=O)c1cn(-c2c(F)cc(F)cc2F)c2nc(N3C[C@@H](O)[C@@H](O)C3)c(F)cc2c1=O` (single isomer, unassigned) [Example 97] showed an EC50 of 13 nM and an Efficiency of 97%.
The molecule `O=C(NC(c1ccccc1Cl)C(F)(F)F)c1cn(-c2ccc(F)cc2F)c2ncc(Cl)cc2c1=O` (racemic) [Example 134, 6-Chloro-N-[1-(2-chlorophenyl)-2,2,2-trifluoroethyl]-1-(2,4-difluorophenyl)-4-oxo-1,4-dihydro-1,8-naphthyridine-3-carboxamide] had an EC50 of 1830 nM and an Emax of 55%.
Taken in the same sequence, the figures for `CC(C)(C)NC(=O)c1cn(-c2c(F)cc(F)cc2Cl)c2nc(N3C[C@@H](O)[C@H](O)C3)c(F)cc2c1=O` [Example 74, N-tert-Butyl-1-(2-chloro-4,6-difluorophenyl)-7-[(3R,4R)-3,4-dihydroxypyrrolidin-1-yl]-6-fluoro-4-oxo-1,4-dihydro-1,8-naphthyridine-3-carboxamide] were 3.9 nM and 95%.
`CCC(CC)(CC)NC(=O)c1cn(-c2c(F)cc(F)cc2F)c2nc(N3C[C@@H](O)[C@@H](O)C3)c(F)cc2c1=O` [Example 77, 7-[(3R,4S)-3,4-Dihydroxypyrrolidin-1-yl]-N-(3-ethylpentan-3-yl)-6-fluoro-4-oxo-1-(2,4,6-tri-fluorophenyl)-1,4-dihydro-1,8-naphthyridine-3-carboxamide] had an EC50 of 1.6 nM and an Emax of 100%.
In the case of `CCC(COC(F)(F)F)NC(=O)c1cn(-c2c(F)cc(F)cc2F)c2nc(N3CC[C@H](O)C3)c(F)cc2c1=O` (single isomer, unassigned) [Example 111], the EC50 was found to be 7.2 nM and the Efficiency is listed as 99%.
Turning to `O=C(NC(C(F)(F)F)C(F)(F)F)c1cn(-c2c(F)cc(F)cc2F)c2nc(N3CCCC[C@@H]3CO)c(F)cc2c1=O` [Example 188, 6-Fluoro-N-(1,1,1,3,3,3-hexafluoropropan-2-yl)-7-[(2R)-2-(hydroxymethyl)piperidin-1-yl]-4-oxo-1-(2,4,6-trifluorophenyl)-1,4-dihydro-1,8-naphthyridine-3-carboxamide], the EC50 stood at 26 nM and the maximum response (Emax) was 97%.

As a reminder, the EC50 is the concentration at which the effect is half-maximal. Low readings indicate an effect from little substance, high ones a need for much substance. The term Emax denotes the greatest response seen or fitted, relative to the assay's reference.
